The text below walks through data of a melting point compilation (Tetko et al.; mined from patent text by program, amines drawn as free bases though some values may be those of a salt).

As a reminder, the melting point is the temperature, or range, at which the solid turns liquid. The compound `CCc1oc2ccccc2c1C(=O)NCc1ccc2c(Br)c(O)ccc2c1` gave a melting point of 188 to 190 °C.

As for `O=C(O)Cc1ccc2nc(-c3ccccc3)oc2c1`, the melting point was 170 °C. The result for `N#CC1CN(C(=O)[C@H](NC(=O)c2c[nH]c3ncc(-c4ccccc4)nc23)C2CC2)C1` reads 200 to 202 °C. Regarding `CCOC(=O)c1c(=O)c2cc(F)c(Cl)cc2n2c(CN(C)C)csc12`, the melting point worked out at 276 °C. The result for `CC(C)(C)c1cc(Cc2c(S)ccc3ccccc23)cc(C(C)(C)C)c1O` reads 30 °C.

Compound `CCCn1cc2c(C3C(=O)Nc4ccc(C#N)cc43)nc(NCCc3cccnc3)nc2n1` (configuration not stated) gave a melting point of 302 to 305 °C.

On to `CC(C#Cc1ccc(C#N)cc1)N1C(=O)c2ccccc2C1=O` (configuration not stated), for which the melting point was in the range of 138 to 142 °C. The result for `Cc1noc(C(C)c2ccc(-c3ccccc3)c(F)c2)n1` (configuration not stated) reads 55 to 56 °C; that for `Cc1nc[nH]c1CSCCN=C(NCCSCc1[nH]cnc1C)NC(N)=O`, 60 to 70 °C; that for `FC(F)(F)c1ccc2c(Nc3ccccc3)ncnc2c1`, 230 to 232 °C.

On to `C=CCOC(=O)c1ccc(N)cc1`, for which the melting point is 48 to 50 °C. The result for `Cc1ccc(-c2cccnc2N2CCC(C(=O)O)CC2)cc1C(=O)NCC12CC3CC(CC(C3)C1)C2` reads 60 °C; that for `Nc1nn(-c2ccccc2)cc1C=O`, 129 to 130 °C; that for `COc1cc2nc(N)nc(-c3cccc(I)c3)c2cc1OC`, 235 to 242 °C. The result for `COc1cccc2c(CCC3CC(=O)CCC3=O)cccc12` (configuration not stated) reads 94 to 100 °C. Compound `O=C(O)c1ccc(Br)cc1COc1ccc2c(c1)OCO2` gave a melting point of 167 to 177 °C. For `COC(=O)C1C(c2ccc(F)c(C)c2)=CCCC1(C)C` (configuration not stated), the melting point fell in the range of 136 to 138 °C.

`O=C(c1ccc(-c2cnc3c(c2)N(Cc2cc(F)ccc2F)CCN3)cc1)N1CCC[C@H]1CN1CCCC1` registered a melting point of 143 to 144 °C. Consider `Cc1cccc2c(=O)cc(N3CCOCC3)oc12`, for which the melting point was determined as 148 °C.

Compound `O=C(O)CC1c2ccccc2C(=O)N1c1ccccc1` (configuration not stated) yielded a melting point of 204 to 205 °C. In the case of `Nc1ccc(-c2nc(Cl)c3c(=O)[nH][nH]c(=O)c3c2N)cc1`, the melting point was above 300 °C. In the case of `CC(C)(C)OC(=O)NCC1C2CN(C(=O)C(O)(c3ccccc3)C3CCCC3)CC12` (configuration not stated) it was 76 to 79.6 °C; in that of `N#Cc1nn(-c2c(Cl)cc(C(F)(F)F)cc2Cl)c(N)c1-c1cc(Cl)cc(Cl)c1`, 228 to 230 °C. Compound `CN(C)C(=O)Nc1snc(N(C)C)c1C#N` displayed a melting point of 203 to 204 °C.

Take `CC(=O)N1C(C)(C)CN(CCN2CC(C)(C)N(C(C)=O)C(C)(C)C2=O)C(=O)C1(C)C`: the melting point was in the range of 180 to 183 °C. In the case of `N#Cc1c(F)cccc1-c1ccccc1` it was 78 to 79 °C; in that of `O=C(CCCO)NCc1ccccc1`, 70 to 72 °C. In the case of `CCN1CCN(c2c(F)c(N)c3c(=O)c(C(=O)O)cn(C4CC4)c3c2F)CCC1=O` it was 276 to 278 °C; in that of `CN(C)C(=O)c1nc(-c2cccc3ccccc23)no1`, 109 to 110 °C. `CC(C)(C)c1nnc2ccc(OCCCN3CCC(OC(c4ccccc4)c4ccccc4)CC3)nn12` showed a melting point of 125 to 127 °C.

For `CC(=O)OC(C)OC1=C(C(=O)Nc2cccc(C)n2)N(C)S(=O)(=O)c2ccccc21` (configuration not stated), the melting point is 190 to 191 °C. The result for `FC(F)(F)c1cccc(N(c2ccccc2)c2ccc(-c3ccc(N(c4ccccc4)c4cccc(C(F)(F)F)c4)cc3)cc2)c1` reads 150 °C; that for `CC(C)(C)OC(=O)c1cc(O[C@H]2CC[C@H](NC(=O)Nc3ccc(Cl)c(C(F)(F)F)c3)CC2)ccn1`, 101 to 117 °C. In the case of `CCOC1CC2(C)C(CCC3C4CCC(C(=O)CBr)C4(C)CC(=O)C32)CC1O` (configuration not stated) it was 74 to 78 °C; in that of `Cc1ccc(-c2cc(Cl)c3cc(Cl)ccc3n2)cc1`, 123 to 125 °C; in that of `C[C@H]1N(S(C)(=O)=O)CO[C@@]1(Cn1cncn1)c1ccc(Cl)cc1Cl` (relative stereo), 167 to 172 °C. The result for `CCOC(=O)c1ccc(C(=O)/C=C/c2ccc(SC)cc2)cc1` reads 115 to 116 °C. As for `CC(=O)N1CCN(NC(=O)c2ccc(F)cc2)CC1`, the melting point lay in the range of 209 to 210 °C. In the case of `CCCCCc1cc2c(nc(O)n2CCCNC(C)=O)c(N)n1` it was 189 to 191 °C. The result for `O=c1nc(-c2cccc(S(=O)Cc3ccccc3)n2)sc2ccccc12` (configuration not stated) reads 208 to 210 °C; that for `Nc1ccc(C2CCN(C(=O)C(F)(F)F)CC2)cc1`, 111 to 112 °C. The result for `Cc1cccc(-c2nc3cccnn3c2-c2ccnc(NC3CCCC3)c2)c1` reads 130 to 131 °C; that for `CCOC(=O)c1cccc(NC(=O)c2ccc(OC)c(NCc3cccs3)c2)c1`, 153 to 155 °C; that for `Nc1cc(=O)n(Cc2ccccc2)c(=O)n1-c1cccc([N+](=O)[O-])c1`, 256 to 260 °C. The compound `O=C(O)CCn1ccc2cc(OCc3ccc4ccccc4n3)ccc21` displayed a melting point of 157 to 160 °C. Compound `O=c1oc(-c2cccc(C(F)(F)F)c2)cc(O)c1SCc1ccccc1` yielded a melting point of 152 to 153 °C.

In turn, `CC(=O)OCC1OC(n2cnc3c(O)nc(Nc4ccccc4)nc32)C(OC(C)=O)C1OC(C)=O` (configuration not stated) showed a melting point of 234 to 235 °C. In the case of `CCOC(=O)CCCCCNc1ccccc1` it was 34 to 37 °C.

Consider `CC(C)(C)c1cc(CN)c(O)c(I)n1`, for which the melting point lay within 162 to 165 °C.

Compound `O=S(=O)(Nc1ccc(I)cc1)N1CCOCC1` returned a melting point of 91 °C. The result for `COc1ccc(-c2cnc3[nH]c4ccccc4c3c2)cc1` reads above 220 °C; that for `COC(=O)c1ccccc1SSc1ccccc1C(=O)Nc1ccc(S(N)(=O)=O)cc1`, 288 to 290 °C. In the case of `CSc1sc(-c2ccn(C)n2)c2c1-c1oncc1C(C)(C)C2` it was 128 to 130 °C; in that of `COC(=O)N(CC(=O)O)C(=O)c1c(Cl)ccc2c(C(F)(F)F)c(OC)ccc12`, 162 to 165 °C; in that of `COCCCc1cccc(C2(c3ccc(OC(F)F)cc3)N=C(N)N(C)C2=O)c1` (configuration not stated), 48 to 50 °C. `O=C1c2[nH]c3cc(O)ccc3c2CC1CC1CCN(Cc2ccccc2)CC1` (configuration not stated) had a melting point of 250 to 252 °C. In the case of `CCOc1nc(-c2cccc(Cl)c2)c2cc(C(O)(c3ccc(I)cc3)c3cncn3C)ccc2n1` (configuration not stated) it was 135 °C; in that of `N#CNC(=N)NCCCN1CCC(c2noc3cc(F)ccc23)CC1`, 178 to 181 °C. In the case of `CC(C(N)=O)c1ccc(C(=O)c2cccs2)cc1` (configuration not stated) it was 108 to 124 °C; in that of `O=S(=O)(Nc1cc(C(F)(F)F)ccc1Oc1ccccc1CO)c1cc(C(F)(F)F)cc(C(F)(F)F)c1`, 123 to 125 °C. For `NC(=O)c1nc(-c2ccc(O)cc2)cs1`, the melting point lay in the range of 223 to 227 °C. On to `CCC(C)(C)c1ccc(OCCCNC(=O)c2cc(NC(=O)C(Cl)(Cl)Cl)c3ccccc3c2O)c(C(C)(C)CC)c1`, for which the melting point is 190 to 192 °C. In the case of `O=C(O)CCC(=O)N1CCN(c2cc3c(cc2F)c(=O)c(C(=O)O)c2sccn23)CC1` it was 331 to 334 °C; in that of `CCCCCNC(=O)n1nc(Oc2ncc(C(F)(F)F)cc2Cl)cc1C`, 142 to 144 °C.

The compound `CNC(=O)Nc1ccc2c(c1)C(CN1CCC(c3ccc(F)cc3)CC1)CC2` (configuration not stated) showed a melting point of 170 to 173 °C.

Regarding `Cc1c(/C=C/C(=O)c2ccccc2)ncn1C(c1ccccc1)(c1ccccc1)c1ccccc1`, the melting point was in the range of 209 to 211 °C.

Turning to `O=C(O)Cc1ccc(Cn2nc(-c3ccccc3)c(Cc3cc4c(cc3Cl)OCO4)c2C(=O)O)cc1`, the melting point was below 45 °C. `Cc1c(C)c2c(c(C)c1N)CC(C)(CN1CCC(Cc3ccccc3)CC1)O2` (configuration not stated) returned a melting point of 71 to 73 °C.

For the compound `O=c1[nH]c(NCCSCc2cccs2)ncc1Cc1cccnc1`, the melting point was 145 to 148 °C.

Regarding `CC12CC(=O)C3C(CCC4CC=CCC43C)C1CCC2C#N` (configuration not stated), the melting point was in the range of 189 to 191 °C.

Consider `Cc1cc(C)c2ncc(NC(=O)C=Cc3cc(C)c(O)c(C)c3)c(-c3ccccc3Cl)c2c1`, for which the melting point is 249 to 251 °C. The result for `CN(c1cccc(C(=O)O)c1)c1ccc(-c2ccc(C(=N)N)cc2)nn1` reads above 260 °C. In the case of `CC(C)NC(COc1ccccc1C(=O)Nc1cccc2[nH]ccc12)NC(C)C` it was 180 °C; in that of `Cc1nc(N2C[C@@H](C)N(Cc3ccc(F)cc3)C2=O)sc1C(=O)NCc1cncs1`, 66 to 69 °C. Regarding `COC(=O)c1ccc(NC(=O)c2ccccc2-c2ccccc2)cc1`, the melting point was in the range of 160 to 161 °C. The result for `CCSCc1cnn(-c2c(Cl)cc(C(F)(F)F)cc2Cl)n1` reads 53 to 54 °C.

`CCOC(=O)c1cn(C2CC2)c2cc(NCCO)c(F)cc2c1=O` came in with a melting point of 228 to 230 °C. In the case of `COc1cnccc1C(C)=O` it was 36 to 37 °C; in that of `CCCCCCOc1cc(-c2cccc([N+](=O)[O-])c2)c(OCCCCCC)cc1-c1cccc([N+](=O)[O-])c1`, 126 to 127 °C.

Regarding `O=C1N[C@@H](CSSc2ccccc2)C(=O)N2CCC[C@H]12`, the melting point turned out to be 120 °C.

For the compound `Cc1ccc([N+](=O)[O-])c(C=C(C(=O)O)C(=O)O)c1`, the melting point is 180 to 182 °C. The result for `Fc1cccc(F)c1C1=NC(c2ccc(-c3ccc(SC(F)F)cc3)cc2)CO1` (configuration not stated) reads 75 to 77 °C; that for `CN(C)c1ccc(-c2cc(=O)c3ccc(O)c(O)c3o2)cc1`, 242 to 245 °C; that for `Cc1nc2cc(OCCO)ccc2s1`, 67 to 68 °C. The result for `Cn1c(=O)c(-c2ccc(Cl)cc2Cl)cc2c3cc(-c4nc(CN)cs4)ccc3n(C)c21` reads 261 to 266 °C. The result for `Cc1cc(C(=O)OC(C)(C)C)cc(C(=O)OC(C)(C)C)c1` reads 86.5 to 87.5 °C.

`O=C(CCc1cccnc1)c1c(O)c2cccnc2n(-c2ccccc2)c1=O` gave a melting point of 219 to 220 °C.
